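A five-concentration, 48-hour dose response in 96-well plates underlies each endpoint, interpolated linearly between surrounding concentrations. GI50 marks 50% less growth.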 Active and inactive are the calls of the source. No stated cut-off is given here; in the data, active = GI50 up to about 1.1 µM and inactive = higher.
Key:
Experiment in all cases: inhibition of tumour cell growth, NCI panel, 48 h
CCRF-CEM = tested on: CCRF-CEM
COLO 205 = tested on: COLO 205
DU-145 = tested on: DU-145
EKVX = tested on: EKVX
HOP-92 = tested on: HOP-92
HT-29 = tested on: HT-29
K562 = tested on: K562
M14 = tested on: M14
MDA-MB-435 = tested on: MDA-MB-435
MDA-N = tested on: MDA-N
Malme-3M = tested on: Malme-3M
RPMI-8226 = tested on: RPMI-8226
SF-295 = tested on: SF-295
SK-MEL-2 = tested on: SK-MEL-2
SNB-75 = tested on: SNB-75
SR = tested on: SR
HCT-15 = tested on: HCT-15
NCI-H23 = tested on: NCI-H23
UACC-62 = tested on: UACC-62
SF-539 = tested on: SF-539

Structure (SMILES)	GI50 (CCRF-CEM)	GI50 (COLO 205)	GI50 (DU-145)	GI50 (EKVX)	GI50 (HOP-92)	GI50 (HT-29)	GI50 (K562)	GI50 (M14)	GI50 (MDA-MB-435)	GI50 (MDA-N)	GI50 (Malme-3M)	GI50 (RPMI-8226)	GI50 (SF-295)	GI50 (SK-MEL-2)	GI50 (SNB-75)	GI50 (SR)	GI50 (HCT-15) [µM]	GI50 (NCI-H23)	GI50 (UACC-62)	GI50 (SF-539)
COC1=CC(=O)C(O)=C(C[C@@]2(C)[C@@H]3CCC[C@H](COC(=O)CCCCCNC(=O)OC(C)(C)C)[C@@]3(C)CC[C@@H]2C)C1=O	1.09 µM (active)	4.08 µM (inactive)	> 10 µM (inactive)	8.28 µM (inactive)	3.9 µM (inactive)	5.12 µM (inactive)	3.86 µM (inactive)	6.56 µM (inactive)	> 10 µM (inactive)	> 10 µM (inactive)	5.9 µM (inactive)	3.54 µM (inactive)	5.28 µM (inactive)	> 10 µM (inactive)	5.11 µM (inactive)	5.22 µM (inactive)	–	–	–	–
CCOc1ccccc1Nc1ccc(N)cc1S(=O)(=O)O	–	–	> 100 µM (inactive)	> 100 µM (inactive)	> 100 µM (inactive)	> 100 µM (inactive)	> 100 µM (inactive)	> 100 µM (inactive)	> 100 µM (inactive)	> 100 µM (inactive)	> 100 µM (inactive)	–	> 100 µM (inactive)	> 100 µM (inactive)	> 100 µM (inactive)	> 100 µM (inactive)	> 100	> 100 µM (inactive)	> 100 µM (inactive)	–
CCC(=O)Nc1ncnc2ncn(C(=O)CC)c12	–	–	> 100 µM (inactive)	> 100 µM (inactive)	> 100 µM (inactive)	> 100 µM (inactive)	> 100 µM (inactive)	> 100 µM (inactive)	> 100 µM (inactive)	> 100 µM (inactive)	> 100 µM (inactive)	> 100 µM (inactive)	> 100 µM (inactive)	> 100 µM (inactive)	> 100 µM (inactive)	> 100 µM (inactive)	> 100	> 100 µM (inactive)	> 100 µM (inactive)	–
CCN(CC)c1ccc(/C=C2\CCc3ccc([N+](=O)[O-])cc3C2=O)cc1	0.217 µM (active)	4.01 µM (inactive)	6.01 µM (inactive)	5.27 µM (inactive)	> 100 µM (inactive)	0.256 µM (active)	0.0755 µM (active)	3.54 µM (inactive)	0.169 µM (active)	0.17 µM (active)	2.52 µM (inactive)	0.391 µM (active)	1.4 µM (inactive)	–	2.52 µM (inactive)	0.324 µM (active)	0.64	7.62 µM (inactive)	1.29 µM (inactive)	2.25 µM (inactive)
O=C1CCCSCCCC(=O)CCCSCCC1	> 100 µM (inactive)	> 100 µM (inactive)	> 100 µM (inactive)	> 100 µM (inactive)	> 100 µM (inactive)	> 100 µM (inactive)	> 100 µM (inactive)	> 100 µM (inactive)	> 100 µM (inactive)	> 100 µM (inactive)	–	–	> 100 µM (inactive)	–	93.3 µM (inactive)	> 100 µM (inactive)	> 100	> 100 µM (inactive)	> 100 µM (inactive)	> 100 µM (inactive)
C=C1C(=O)O[C@@H]2C=C(C)C3=CC(=O)[C@](C)(C[C@H](OC(=O)/C(C)=C\C)[C@@H]12)O3	0.209 µM (active)	0.51 µM (active)	4.1 µM (inactive)	–	0.671 µM (active)	0.647 µM (active)	0.282 µM (active)	0.644 µM (active)	0.813 µM (active)	0.311 µM (active)	–	0.2 µM (active)	2.42 µM (inactive)	1.7 µM (inactive)	13.5 µM (inactive)	0.201 µM (active)	0.328	1.22 µM (inactive)	0.508 µM (active)	2.43 µM (inactive)
O=C(CC(C(=O)c1ccsc1)c1ccccc1)c1cccs1 (stereo unspecified)	80.5 µM (inactive)	> 100 µM (inactive)	> 100 µM (inactive)	> 100 µM (inactive)	> 100 µM (inactive)	69.2 µM (inactive)	> 100 µM (inactive)	24.8 µM (inactive)	40.6 µM (inactive)	69.2 µM (inactive)	–	> 100 µM (inactive)	33.3 µM (inactive)	–	72.6 µM (inactive)	57.4 µM (inactive)	56.9	22 µM (inactive)	24.8 µM (inactive)	> 100 µM (inactive)
CCCc1nc(Cl)c(Cl)c(Cl)n1	8.81 µM (inactive)	25.4 µM (inactive)	35 µM (inactive)	21.4 µM (inactive)	21 µM (inactive)	> 47.6 µM (inactive)	9.53 µM (inactive)	25.4 µM (inactive)	20.1 µM (inactive)	33.8 µM (inactive)	10.7 µM (inactive)	–	> 60.4 µM (inactive)	–	4.28 µM (inactive)	5.78 µM (inactive)	15.8	18.7 µM (inactive)	36.5 µM (inactive)	26.9 µM (inactive)
COP(=O)(OC)[C@@](O)(c1ccccc1)[C@@H](O)[C@@H](O)c1ccccc1	21.7 µM (inactive)	> 100 µM (inactive)	> 100 µM (inactive)	> 100 µM (inactive)	> 100 µM (inactive)	> 100 µM (inactive)	–	> 100 µM (inactive)	> 100 µM (inactive)	85.3 µM (inactive)	> 100 µM (inactive)	–	> 100 µM (inactive)	> 100 µM (inactive)	> 100 µM (inactive)	0.531 µM (active)	> 100	> 100 µM (inactive)	> 100 µM (inactive)	33.7 µM (inactive)
COc1ccc2c(c1)CCC1=CC3(CCC12C)SCCS3 (stereo unspecified)	3.97 µM (inactive)	4.73 µM (inactive)	> 10 µM (inactive)	–	4.97 µM (inactive)	3.68 µM (inactive)	3.72 µM (inactive)	4.46 µM (inactive)	3.74 µM (inactive)	2.59 µM (inactive)	5.35 µM (inactive)	3.5 µM (inactive)	3.87 µM (inactive)	–	0.649 µM (active)	4.41 µM (inactive)	6.38	6.82 µM (inactive)	4.14 µM (inactive)	–
C=CCC(CNC(=O)OCc1ccccc1)O[Si](C)(C)C(C)(C)C (stereo unspecified)	28.3 µM (inactive)	16.6 µM (inactive)	36.5 µM (inactive)	25.4 µM (inactive)	26.2 µM (inactive)	18 µM (inactive)	23.6 µM (inactive)	26.4 µM (inactive)	38.5 µM (inactive)	34.8 µM (inactive)	–	20 µM (inactive)	35.2 µM (inactive)	16.6 µM (inactive)	59.3 µM (inactive)	18.5 µM (inactive)	35.9	55.5 µM (inactive)	23.2 µM (inactive)	28.5 µM (inactive)
Nc1c(Cl)cc(-c2nc3ccccc3s2)cc1Cl	> 100 µM (inactive)	> 100 µM (inactive)	> 100 µM (inactive)	> 100 µM (inactive)	> 100 µM (inactive)	> 100 µM (inactive)	> 100 µM (inactive)	> 100 µM (inactive)	> 100 µM (inactive)	> 100 µM (inactive)	> 100 µM (inactive)	–	> 100 µM (inactive)	> 100 µM (inactive)	> 100 µM (inactive)	> 100 µM (inactive)	> 100	–	> 100 µM (inactive)	> 100 µM (inactive)
O=C(c1ccccc1)c1ccc2c(c1)NC(=O)c1ccccc1SSc1ccccc1C(=O)N2	> 100 µM (inactive)	> 100 µM (inactive)	> 100 µM (inactive)	> 100 µM (inactive)	> 100 µM (inactive)	> 100 µM (inactive)	> 100 µM (inactive)	> 100 µM (inactive)	> 100 µM (inactive)	> 100 µM (inactive)	> 100 µM (inactive)	> 100 µM (inactive)	> 100 µM (inactive)	> 100 µM (inactive)	–	85.5 µM (inactive)	> 100	> 100 µM (inactive)	> 100 µM (inactive)	> 100 µM (inactive)
CN(C)/C=C/C=C(/C=N/S(=O)(=O)C(F)(F)F)C1C=CN(S(=O)(=O)C(F)(F)F)C=C1	27.1 µM (inactive)	17.7 µM (inactive)	37.2 µM (inactive)	30.1 µM (inactive)	32.7 µM (inactive)	27.5 µM (inactive)	37.8 µM (inactive)	36.1 µM (inactive)	25.8 µM (inactive)	36.7 µM (inactive)	32 µM (inactive)	38.3 µM (inactive)	38.2 µM (inactive)	24.5 µM (inactive)	16.6 µM (inactive)	30.1 µM (inactive)	23.4	23.3 µM (inactive)	42.3 µM (inactive)	–
O=C(/C=C/c1ccc(Cl)cc1)c1ccc(Cl)s1	27 µM (inactive)	70.8 µM (inactive)	> 100 µM (inactive)	68.9 µM (inactive)	82.4 µM (inactive)	42.3 µM (inactive)	30.3 µM (inactive)	44.1 µM (inactive)	> 10 µM (inactive)	28.4 µM (inactive)	> 100 µM (inactive)	17.8 µM (inactive)	78.3 µM (inactive)	–	39 µM (inactive)	34.3 µM (inactive)	60.3	38.9 µM (inactive)	23.4 µM (inactive)	36.5 µM (inactive)
O=C(O)C1OC1C(=O)O (stereo unspecified)	–	> 100 µM (inactive)	> 100 µM (inactive)	> 100 µM (inactive)	> 100 µM (inactive)	> 100 µM (inactive)	> 100 µM (inactive)	> 100 µM (inactive)	> 100 µM (inactive)	> 100 µM (inactive)	> 100 µM (inactive)	> 100 µM (inactive)	> 100 µM (inactive)	> 100 µM (inactive)	> 100 µM (inactive)	> 100 µM (inactive)	> 100	> 100 µM (inactive)	> 100 µM (inactive)	–
